From patent US20020095695A1, “Tillering promoter for plant and method for tillering promotion of plant” (AJINOMOTO CO., INC., priority 2000, published 2002)

Columns and labels:
Assay type in all cases: in vivo
[1] = tested on: lawn grass (a European grass; bent grass); experiment: Effect of proline on hydroponic cultivation of lawn grass (1); settings: for Average leaf length / Average root length / Number of leaves per one root / Number of tillering per one root / Total weight of living plants per five roots: 5 roots per group, inosine 2 ppm in hydroponic medium, proline 20 ppm onto leaf surfaces once a week; for tillering promotion (observation): confirmation on the 40th day, inosine 2 ppm in medium, proline 20 ppm foliar once a week
Description: Seedlings of grass (a European grass; bent grass) were raised and divided into four groups of A to D, and hydroponic cultivation was carried out (Table 1 shown below). Concerning Groups B and D, inosine was added to each hydroponic medium in such amount that the concentration became 2 ppm. Concerning Groups C and D, proline was applied onto leaf surfaces once a week in an amount of 20 ppm. Group A was the control. […] Furthermore, five average stocks which had not been withered were sampled from each group and examined.

[2] = tested on: grass (a European grass: bent grass); experiment: Effects of proline, glutamine, arginine and urea on hydroponic cultivation of grass; settings: for Average leaf length / Average root length / Number of leaves per one root / Number of tillering per one root / Total weight of living plants per five roots / number of leaves and total weight of the living plant, in words: 40th day; for Average leaf length / Average root length / Number of leaves per one root / Number of tillering per one root / Total weight of living plants per five roots: 5 roots per group, proline 20 ppm, others at the same nitrogen amount; for number of leaves and total weight of the living plant, in words: five average stocks per group
Description: Seedlings of grass (a European grass: bent grass) were raised and divided into five groups of A to E, and hydroponic cultivation was carried out (Table 2 shown below). Group A was the control. Concerning Group B, proline was applied onto leaf surfaces once a week in an amount of 20 ppm.
(§1) Furthermore, five average stocks which had not been withered were sampled from each group and examined.

[3] = tested on: grass (a European grass: bent grass); experiment: Effect of proline on hydroponic cultivation of grass (2), proline concentration changed stepwise; settings: 40th day
Description: Seedlings of grass (a European grass: bent grass) were raised and divided into six groups of A to F, and hydroponic cultivation was carried out (Table 3 shown below). At that time, inosine was added to the hydroponic media for all the groups in such amount that the concentration became 2 ppm in each hydroponic medium. Group A was the control. In the groups of B to F, proline was applied onto leaf surfaces once a week with the concentration being changed stepwise.
as §1

[4] = 0.2% proline foliar once a week, inosine 2 ppm in hydroponic medium
[5] = 2.0% proline foliar once a week, inosine 2 ppm in hydroponic medium
[6] = 20 ppm proline foliar once a week, inosine 2 ppm in hydroponic medium
[7] = 200 ppm proline foliar once a week, inosine 2 ppm in hydroponic medium
[8] = group B, 2 ppm, inosine 2 ppm in hydroponic medium of all groups, foliar once a week

## O=C(O)[C@@H]1CCCN1 [Proline, proline]
[1]; 40th day
  Average leaf length: 22 cm
  Average root length: 1 cm
  Number of leaves per one root: 16
  Number of tillering per one root: 5
  Total weight of living plants per five roots: 0.53 g
[1]; 40th day, five average stocks per group
  growth (root length, leaf length and number, total weight of the living plant, tillering number), in words: good growth
[1]
  tillering promotion (observation): tillering promotion was clearly observed
[2]; foliar once a week
  Average leaf length: 14 cm
  Average root length: 2 cm
  Number of leaves per one root: 17
  Number of tillering per one root: 5
  Total weight of living plants per five roots: 0.60 g
[2]
  number of leaves and total weight of the living plant, in words: good results
[3]; [4]
  Average leaf length: 23 cm
  Average root length: 5 cm
  Number of leaves per one root: 14
  Number of tillering per one root: 3
  Total weight of living plants per five roots: 0.90 g
[3]; [5]
  Average leaf length: 19 cm
  Average root length: 3 cm
  Number of leaves per one root: 11
  Number of tillering per one root: 3
  Total weight of living plants per five roots: 0.40 g
[3]; [6]
  Average leaf length: 24 cm
  Average root length: 4 cm
  Number of leaves per one root: 15
  Number of tillering per one root: 4
  Total weight of living plants per five roots: 0.95 g
[3]; [7]
  Average leaf length: 24 cm
  Average root length: 5 cm
  Number of leaves per one root: 24
  Number of tillering per one root: 4
  Total weight of living plants per five roots: 1.01 g
[3]; Group F (2.0% proline foliar once a week), inosine 2 ppm in medium
  inhibition of the growth or withering (observation): inhibition of the growth or withering was observed
[3]; proline at a concentration of 2 ppm to 0.2%, inosine 2 ppm in medium
  number of leaves and total weight of the living plant, in words: good results

## N=C(N)NCCC[C@H](N)C(=O)O [Arginine, arginine]
[2]; foliar once a week
  Average leaf length: 18 cm
  Average root length: 2 cm
  Number of leaves per one root: 9
  Number of tillering per one root: 3
  Total weight of living plants per five roots: 0.51 g
[2]
  number of leaves and total weight of the living plant, in words: good results

## NC(N)=O [Urea, urea, reference compound]
[2]; foliar once a week
  Average leaf length: 15 cm
  Average root length: 2 cm
  Number of leaves per one root: 6
  Number of tillering per one root: 1
  Total weight of living plants per five roots: 0.34 g
[2]; confirmation on the 40th day, foliar once a week, nitrogen amount equal to 20 ppm proline
  tillering promotion (observation): no tillering promotion was observed

## NC(=O)CC[C@H](N)C(=O)O [Glutamine, glutamine]
[2]; foliar once a week
  Average leaf length: 18 cm
  Average root length: 2 cm
  Number of leaves per one root: 11
  Number of tillering per one root: 3
  Total weight of living plants per five roots: 0.66 g
[2]
  number of leaves and total weight of the living plant, in words: good results

## OC[C@H]1O[C@@H](n2cnc3c(O)ncnc32)[C@H](O)[C@@H]1O [Inosine, inosine]
[1]; 40th day
  Average leaf length: 20 cm
  Average root length: 2 cm
  Number of leaves per one root: 7
  Number of tillering per one root: 2
  Total weight of living plants per five roots: 0.40 g
[1]
  tillering promotion (observation): no tillering promotion was observed
[3]; [8]
  Average leaf length: 24 cm
  Average root length: 4 cm
  Number of leaves per one root: 14
  Number of tillering per one root: 3
  Total weight of living plants per five roots: 1.04 g
